Experimental data as given in patent US8344163B2, “Nitrile compound and its use for control of arthropod pest” (Sumitomo Chemical Company, Limited, priority 2008, dated 2013).

System: Blattalla germanica
Test: Test Example 5: filter paper with sucrose bait, Blattalla germanica male imagoes
Type: in vivo
Details: 500 ppm active ingredient, 0.7 ml on filter paper; 2 male imagoes; after 6 days
Method: A formulation of any one of the present compounds (1t), (1c), (3), (4), (7) and (8) obtained according to Formulation Example 16 was diluted with water to prepare a test solution having 500 ppm of the active ingredient.
A filter paper having a diameter of 5.5 cm was spread on the bottom of a polyethylene cup having a diameter of 5.5 cm and 0.7 ml of the test solution was added dropwise onto the filter paper. As a bait, 30 mg of sucrose was uniformly placed on the filter paper. Into the polyethylene cup, 2 male imagoes of Blattalla germanica were released and the cup was sealed with a lid. After 6 days, the number of surviving or dead Blattalla germanica was counted and the death rate of the pest was calculated.

Structure (SMILES) | pest death rate [%]
C#C[C@H]1CC[C@@H](CC(C#N)(C#N)CCC(F)(F)F)CC1 [(1c)] | 100
C#C[C@H]1CC[C@H](CC(C#N)(C#N)CCC(F)(F)F)CC1 [(1t)] | 100
C#CC1(F)CCC(CC(C#N)(C#N)CCC(F)(F)F)CC1 (stereo not drawn) [(3)] | 100
C#CC12CCC(CC(C#N)(C#N)CCC(F)(F)F)CC1O2 (stereo not drawn) [(4)] | 100
C#CC1(F)CCC(CCC(C#N)(C#N)CCC(F)(F)F)CC1 (stereo not drawn) [(7)] | 100
CON=C1CCC(CC(C#N)(C#N)CCC(F)(F)F)CC1 (stereo not drawn) [(8)] | 100
